According to patent US8426429B2, “2-amino-quinazoline derivatives useful as inhibitors of β-secretase (BACE)” (Jansssen Pharmaceutica N.V., priority 2004, dated 2013):

Molecular target: T1, β-secretase (BACE) (Homo sapiens, UniProt P56817)
T1 construct: purchased Panvera
Test: BACE FS1 % Inhibition Assay
Type: biochemical
Conditions: FS1 substrate
Procedure, shortened: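 Percent inhibition per compound concentration was referenced to vehicle-treated enzyme and no-enzyme wells. Enzyme at a 4 μg/mL working stock plus compound was mixed for 20 min at room temperature before the FS1 substrate (300 μg/mL working stock) was added for a 1 h room-temperature reaction.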

T1 sequence (P56817 46-501): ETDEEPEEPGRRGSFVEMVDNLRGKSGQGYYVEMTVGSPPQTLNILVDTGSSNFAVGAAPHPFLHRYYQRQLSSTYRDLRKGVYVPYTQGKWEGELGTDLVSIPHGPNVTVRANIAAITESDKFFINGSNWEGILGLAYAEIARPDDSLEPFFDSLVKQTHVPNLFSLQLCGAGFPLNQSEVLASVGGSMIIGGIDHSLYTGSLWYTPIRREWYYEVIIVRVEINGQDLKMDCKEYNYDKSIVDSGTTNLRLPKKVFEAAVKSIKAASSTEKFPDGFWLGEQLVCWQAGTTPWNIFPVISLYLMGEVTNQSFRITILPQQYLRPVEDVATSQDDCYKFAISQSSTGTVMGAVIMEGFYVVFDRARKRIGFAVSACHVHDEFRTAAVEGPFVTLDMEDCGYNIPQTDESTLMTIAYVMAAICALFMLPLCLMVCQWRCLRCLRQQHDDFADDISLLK

Row | SMILES | % Inhibition (FS) (0.3 μM compound) [%] | % Inhibition (FS) (1 μM compound) [%] | % Inhibition (FS) (3 μM compound) [%]
1 | CC(CC(=O)NCCN1Cc2cc(-c3ccccc3)ccc2N=C1N)C(F)(F)F (stereo not drawn) [Compound 685] | 50 | 90 | –
2 | NC1=Nc2ccc(-c3ccc4ccccc4c3)cc2CN1CCNC(=O)CCC(F)(F)F [Compound 686] | <30 | 73 | 80
3 | NC1=Nc2ccc(-c3ccccc3F)cc2CN1CCNC(=O)C1CCOCC1 [Compound 687] | <30 | 50 | 87
4 | NC1=Nc2ccc(-c3ccccc3F)cc2CN1CCNC(=O)C1CCC(C(F)(F)F)CC1 (stereo not drawn) [Compound 688] | <30 | 36 | 81
5 | NC1=Nc2ccc(-c3ccccc3Cl)cc2CN1CCNC(=O)C1CCOCC1 [Compound 689] | 33 | 82 | –
6 | NC1=Nc2ccc(-c3ccccc3Cl)cc2CN1CCNC(=O)C1CCC(C(F)(F)F)CC1 (stereo not drawn) [Compound 690] | <30 | <30 | 52
7 | CC(=O)N1CCC(C(=O)NCCN2Cc3cc(-c4ccccc4Cl)ccc3N=C2N)CC1 [Compound 691] | <30 | <30 | 51
8 | Cc1ccccc1-c1ccc2c(c1)CN(CCNC(=O)C1CCC(C(F)(F)F)CC1)C(N)=N2 (stereo not drawn) [Compound 694] | <30 | <30 | 84
9 | CC(=O)N1CCC(C(=O)NCCN2Cc3cc(-c4ccccc4C)ccc3N=C2N)CC1 [Compound 695] | <30 | <30 | 54
10 | COC1CCCC(C(=O)NCCN2Cc3cc(-c4ccccc4C)ccc3N=C2N)C1 (stereo not drawn) [Compound 696] | <30 | 72 | –
11 | COc1ccccc1-c1ccc2c(c1)CN(CCNC(=O)C1CCOCC1)C(N)=N2 [Compound 697] | <30 | <30 | 63
12 | COc1ccccc1-c1ccc2c(c1)CN(CCNC(=O)C1CCC(C(F)(F)F)CC1)C(N)=N2 (stereo not drawn) [Compound 698] | <30 | <30 | 64
13 | COc1cccc(F)c1-c1ccc2c(c1)CN(CCNC(=O)C1CCOCC1)C(N)=N2 [Compound 699] | 31 | 64 | 93
14 | COc1cccc(F)c1-c1ccc2c(c1)CN(CCNC(=O)C1CCC(C(F)(F)F)CC1)C(N)=N2 (stereo not drawn) [Compound 700] | <30 | 36 | 85
15 | NC1=Nc2ccc(-c3ccccc3)cc2CN1CCNC(=O)C1CCC(C(F)(F)F)CC1 (stereo not drawn) [Compound 701] | <30 | <30 | 54
16 | CC(=O)N1CCC(C(=O)NCCN2Cc3cc(-c4ccccc4)ccc3N=C2N)CC1 [Compound 702] | <30 | <30 | <30
17 | COC1CCCC(C(=O)NCCN2Cc3cc(-c4ccccc4)ccc3N=C2N)C1 (stereo not drawn) [Compound 703] | <30 | 46 | 83
18 | NC1=Nc2ccc(C3=CCCCC3)cc2CN1CCNC(=O)C1CCC(C(F)(F)F)CC1 (stereo not drawn) [Compound 704] | <30 | <30 | <30
19 | CC(=O)N1CCC(C(=O)NCCN2Cc3cc(C4=CCCCC4)ccc3N=C2N)CC1 [Compound 705] | <30 | <30 | <30
20 | COC1CCCC(C(=O)NCCN2Cc3cc(C4=CCCC4)ccc3N=C2N)C1 (stereo not drawn) [Compound 706] | <30 | <30 | <30
21 | NC1=Nc2ccc(C3=CCCC3)cc2CN1CCNC(=O)C1CCC(C(F)(F)F)CC1 (stereo not drawn) [Compound 707] | <30 | <30 | <30
